Measured values published in patent US12702715B2, “Targeted RNA degradation allows precision repurposing of protein-targeted small molecule medicines to RNA” (University of Florida Research Foundation, Incorporated, priority 2020, dated 2026).
“Also recorded” adds a separate entry of the source.

Experiments:
MDA-MB-231 cells = experiment: Boyden chamber invasion assay, MDA-MB-231; assay type: cell-based, human
Experimental: Boyden Chamber Invasion Assay. MDA-MB-231 or MCF-10A cells (5×10^4) in serum free growth medium with or without compound treatment were seeded into hanging cell culture inserts (for 24-well plates) pre-coated with Matrigel. Complete growth medium was added to the bottom well. After 16-24 h, the medium was removed, and the hanging inserts were washed with 1×DPBS twice and then fixed with 4% paraformaldehyde in 1×DPBS at room temperature for 20 min. Then the inserts were washed twice with 1×DPBS and stained with 0.1% (w/v) crystal violet 1×DPBS for 20 min. The inserts were washed twice with nanopure water and once with 1×DPBS. Cells on the surface of the Matrigel (non-invasive) were removed with cotton swabs and invading cells were counted and imaged under a microscope.

MDA-MB-231-Luc cells = assay type: in vivo, mouse; conditions: for pre-miR-21 levels in lung tissue: FISH; for pre-miR-21 levels in lung tissue / ERK levels in lung tissue / PDCD4 expression in lung tissue: 1 assessed after 12 days of dosing; for ERK levels in lung tissue / PDCD4 expression in lung tissue: IHC
Description: In Vivo Studies to Assess Metastasis of Breast Cancer to the Lung. Female NOD/SCID mice (n=10; 5-7 weeks) were used for in vivo breast cancer metastasis studies as previously reported^6. Briefly, mice purchased from Jackson Laboratory were intravenously injected (tail vein) with MDA-MB-231-Luc cells (0.8×10^6 cells/mice). Luciferase activity was monitored every other day to determine when to initiate treatment [averaged luciferase signal from mice is ten times higher than the background as measured by LagoX (Spectral Instruments)]. After 5 days, the mice were split into three groups, with each group having the same luciferase signal. […]. After 30 days, lungs were harvested and immediately fixed in Bouin's solution (Sigma, HT10132-1L) for 24 h to image nodules. After counting the nodules, the fixed lungs were washed in 60 mL of 10% formalin solution four times over 48 h to remove Bouin's solution. Paraffin-embedded sections of the lungs were then generated by the Histology Core at Scripps Research Florida for further staining.
Lung Tissue Histology. All histological analyses were performed as previously reported^6. The slides were stained on a Leica BondMax Immunostaining platform by using a DAB refine kit. H&E staining and PDCD4, pERK and ERK IHC were performed by the Histology Core at Scripps Research Florida. All antibodies were used at a 1:100 dilution: anti-PDCD4 (Abcam, ab51495); anti-pERK (Cell Signaling Technology, 4370S); and ERK (Cell Signaling Technology, 9102S). The primary antibodies were detected using a DAB Substrate Kit (Vector Laboratories, Inc.) per the manufacturer's protocol.
To visualize miR-21 and pre-miR-21 by fluorescence in situ hybridization (FISH), the paraffin-embedded sections were incubated at 56° C. overnight and cleaned with xylene three times, followed by washing with serially diluted concentrations of ethanol (100%, 95%, 90%, and 85%). The slides were then washed with MilliQ water three times and immersed in 0.3% (v/v) H2O2 for 30 min at room temperature. The slides were then washed with MilliQ water three times and digested with proteinase K (QIAGEN) at 37° C. for 15 min. After washing three times with MilliQ water, the slides were dehydrated with 95% ethanol and air-dried completely at room temperature. The slides were then hybridized with FITC-labeled LNA probes^6 complementary to mature ([…]*/36-FAM SEQ ID NO: 16) or pre-miR-21 ([…]/36-FAM SEQ ID NO: 17) at […] overnight. After hybridization, the slides were washed with 2×SSC (saline sodium citrate buffer) three times and then 1×DPBS three times, all at room temperature. The slides were then incubated with an anti-FITC horseradish peroxidase-conjugated antibody (Abcam) for 2 h at room temperature. The slides were washed with 1×TBST three times.
After staining of interest was completed, the slides were dehydrated, cover-slipped with Cytoseal 60, and imaged with a Leica DM13000 B upright fluorescent microscope.

[1] = system: proteome of MDA-MB-231 cells; experiment: Global proteomics profiling by LC-MS/MS; assay type: cell-based, human; conditions: for number of proteins significantly affected / abundance of miR-21 regulated proteins: 1 and 2 at 1 μM; for number of proteins significantly affected: LNA-21 0.1 μM, 48 h, 3000 proteins detected; for abundance of miR-21 regulated proteins: LNA-21 100 nM; for proteins associated with miR-let-7: control
Experimental: Global Proteomics Profiling by Using LC-MS/MS. MDA-MB-231 cells (~60% confluency) were treated with 1 (1 μM), 2 (1 μM), LNA-21 (0.1 μM), or vehicle for 48 h. After washing with 1×DPBS, the cells were harvested by scraping and resuspended in 1×DPBS. They were lysed by sonication and centrifuged at 14,000×g for 15 min. Protein concentrations were determined by a Bradford assay (Bio-Rad). Protein samples (340 μg) were denatured with 6 M urea in 50 mM NH4HCO3, pH 8, reduced with 10 mM TCEP (tris(2-carboxyethyl)phosphine hydrochloride) for 30 min, and alkylated with 25 mM iodoacetamide for 30 min in the dark. The samples were diluted to a final concentration of 2 M urea with 50 mM NH4HCO3, pH 8, and CaCl2) was added to a final concentration of 1 mM. The protein mixture was digested with tiypsin (1.5 μL of 0.5 μg/μL) overnight at 37° C. The digested protein samples were acidified with acetic acid and desalted over a self-packed C18 spin column. After lyophilization, the samples were analyzed by LC-MS/MS as described below.
LC-MS/MS Analysis and MaxQuant Analysis. The lyophilized protein obtained above was resuspended in 0.1% formic acid in water and analyzed by using an EASY-nLC 1200 nano-UHPLC coupled to Q Exactive HF-X Quadrupole-Orbitrap mass spectrometer (Thermo Scientific) as previously reported^6. Obtained spectra were then analyzed with MaxQuant (V1.6.1.0). Spectra were searched against the human proteome (Uniprot) and common contaminants. The search tolerance was set to 20 ppm for the first peptide search and 10 ppm for the main peptide search. The false discovery rate (FDR) for proteins, peptides and sites identification was set at 5%. All the parameters were set as previously reported^6.
Principal Component Analysis. Principal component analysis (PCA) was completed on the proteomics data that included 2,315 proteins that were detected in all samples after the technical replications were averaged, to visualize overall differences across the samples. R build in package prcomp^10 was used to perform the analysis, where scale was set to TRUE.

| SMILES | invasion of MDA-MB-231 cells (MDA-MB-231 cells) | weight change of NOD/Scid mice (MDA-MB-231-Luc cells; 56 mg/kg q.o.d., over 38 days) | pre-miR-21 levels in lung tissue (MDA-MB-231-Luc cells) | ERK levels in lung tissue (MDA-MB-231-Luc cells) | PDCD4 expression in lung tissue (MDA-MB-231-Luc cells) | hematoxylin and eosin (HE) staining of lung (MDA-MB-231-Luc cells; mouse, in vivo) | PCA similarity of proteome [1] | number of proteins significantly affected [1] | abundance of miR-21 regulated proteins [1] | proteins associated with miR-let-7 [1] | number of affected proteins associated with ERK pathways ([1]; 1 μM) |
| --- | --- | --- | --- | --- | --- | --- | --- | --- | --- | --- | --- |
| CCOC(=O)C1=C(Nc2ccccc2)S/C(=C\c2ccc(OCCOCCOCCOCCNC(=O)NCCN3CCN(c4ccc5[nH]c(-c6c(N)c7c(F)cccc7[nH]c6=O)nc5c4)CC3)c(O)c2)C1=O [Compound 2, Ribotac-Dovitinib] | reduced the invasive characteristic | did not cause significant changes in weight | significantly diminished | had no effect | derepressed | decrease | more similar to treatment with LNA-21 than 1 | 28 | globally upregulated; also recorded: significant increase in abundance | Neither treatment with 1 nor 2 affected |  |
| CN1CCN(c2ccc3nc(-c4c(N)c5c(F)cccc5[nH]c4=O)[nH]c3c2)CC1 [Compound 1, Dovitinib, reference compound] | inhibited invasiveness; also recorded: reduced |  | did not affect | did not affect | did not affect |  |  | 46 | had no effect; also recorded: no significant changes | Neither treatment with 1 nor 2 affected | 14 |
